These are literature values, as cited in patent US20090137633A1, “Stable pharmaceutical composition of rabeprazole” (priority 2003, published 2009).

The structures appear in SMILES notation. Structures can show the parent of a compound that is named as a salt.

For data set [1], the target named is T1, gastric H^+ K^+ ATPase enzyme system (proton pump) (Homo sapiens, UniProt P20648).
T1 construct: at the secretory surface of the gastric parietal cell; host or cells: gastric parietal cell (in vivo)
The following applies: in vivo.

T1 sequence (P20648 whole entry): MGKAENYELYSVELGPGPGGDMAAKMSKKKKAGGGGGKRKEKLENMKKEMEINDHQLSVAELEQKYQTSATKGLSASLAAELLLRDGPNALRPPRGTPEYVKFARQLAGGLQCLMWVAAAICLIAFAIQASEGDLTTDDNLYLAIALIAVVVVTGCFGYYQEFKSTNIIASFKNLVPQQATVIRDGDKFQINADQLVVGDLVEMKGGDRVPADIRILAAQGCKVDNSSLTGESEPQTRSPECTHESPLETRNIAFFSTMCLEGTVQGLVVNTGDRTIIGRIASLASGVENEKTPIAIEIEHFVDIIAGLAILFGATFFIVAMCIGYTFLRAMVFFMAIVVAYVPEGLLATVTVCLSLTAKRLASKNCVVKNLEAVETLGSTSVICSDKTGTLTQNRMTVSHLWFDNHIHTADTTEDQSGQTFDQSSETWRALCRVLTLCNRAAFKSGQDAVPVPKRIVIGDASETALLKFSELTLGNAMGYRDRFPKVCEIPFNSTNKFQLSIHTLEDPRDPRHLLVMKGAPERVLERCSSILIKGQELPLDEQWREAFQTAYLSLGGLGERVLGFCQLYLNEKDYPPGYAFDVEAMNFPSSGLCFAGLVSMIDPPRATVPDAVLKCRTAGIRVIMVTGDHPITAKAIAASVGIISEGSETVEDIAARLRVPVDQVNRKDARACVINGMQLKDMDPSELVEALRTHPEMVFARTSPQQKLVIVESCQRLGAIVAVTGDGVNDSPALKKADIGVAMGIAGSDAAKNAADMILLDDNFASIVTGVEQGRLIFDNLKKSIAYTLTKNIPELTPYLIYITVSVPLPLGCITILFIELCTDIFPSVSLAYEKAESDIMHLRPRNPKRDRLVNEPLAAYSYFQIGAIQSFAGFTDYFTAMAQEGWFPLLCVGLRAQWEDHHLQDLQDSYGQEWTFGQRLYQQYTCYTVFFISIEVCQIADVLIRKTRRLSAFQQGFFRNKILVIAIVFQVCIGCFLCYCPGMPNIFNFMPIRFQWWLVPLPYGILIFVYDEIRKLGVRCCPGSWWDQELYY
T1 sequence (P51164 whole entry partner): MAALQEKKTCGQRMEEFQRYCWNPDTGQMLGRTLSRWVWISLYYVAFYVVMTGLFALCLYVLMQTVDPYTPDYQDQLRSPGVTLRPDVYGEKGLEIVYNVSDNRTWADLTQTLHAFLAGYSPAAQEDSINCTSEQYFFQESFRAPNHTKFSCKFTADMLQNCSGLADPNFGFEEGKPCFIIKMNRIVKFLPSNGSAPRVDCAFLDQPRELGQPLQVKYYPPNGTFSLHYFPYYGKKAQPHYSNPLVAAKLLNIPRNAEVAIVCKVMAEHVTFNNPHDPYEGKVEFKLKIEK

With `COCCCOc1ccnc(C[S+]([O-])c2nc3ccccc3[nH]2)c1C` (centres unmarked) [rabeprazole, 2-{[[4-(3-methoxypropoxy)-3-methyl]-2-pyridinyl]sulfinyl}-1H-benzimidazole sodium salt], the oral bioavalability entry is “about 50%”. Besides, the “effect on intragastric pH in relation to cytochrome P450 2C19 genotype” value in data set [1] is given as “unaffected”.
